Measurements taken from publication PMC9503778, “Targeted Isolation of Antibiotic Brominated Alkaloids from the Marine Sponge Pseudoceratina durissima Using Virtual Screening and Molecular Networking” (Marine Drugs, 2022).
Where “and” joins values, the source holds several entries; their conditions need not be identical. Equal entries are not always repeated. Where two headings read alike, the source gives them in different places. Each block holds one compound with its values, some of them ahead of it.

Legend:
[1] = tested on: C. neoformans var. grubii strain ATCC 208821; assay: Antimicrobial growth inhibition (CO-ADD), C. neoformans; assay type: cell-based, Cryptococcus neoformans; settings: 32 µg/mL, duplicate (n = 2) values
Description: (§1) Compounds 1−3 and 5−12 were assayed against a selection of medically important pathogenic microorganisms (MRSA, E. coli, K. pneumoniae, A. baumanii, P. aeruginosa, C. albicans, C. neoformans), Table 4. […] To the best of our knowledge this compound had not been tested against any drug resistant strain of Gram-positive bacterium until this study.
(§2) The antimicrobial activity testing was performed by the Community for Antimicrobial Drug Discovery (CO-ADD). Compounds were assayed against a range of both Gram negative and Gram positive bacteria (see Supplementary Materials S3) including methicillin-resistant Staphylococcus aureus (MRSA) (G+), Escherichia coli (G-), Klebsiella pneumoniae (G-), Acinetobacter baumannii (G-), Pseudomonas aeruginosa (G-) together with two species of fungus (Candida albicans and Cryptococcus neoformans).
(§3) S3. Antimicrobial activity testing methodology
The compounds submitted to CO-ADD were evaluated in duplicate (n = 2) against seven microorganisms (five bacteria and two fungi) at a concentration of 32 µg/mL in a 384-well, non-binding surface plate (NBS) for each bacterial/fungal strain, keeping the final DMSO concentration to a maximum of 1% DMSO. All bacteria were cultured in cation-adjusted […]
Fungal strains were cultured for 3 days on Yeast Extract-Peptone Dextrose (YPD) agar at 30 °C. A yeast suspension of 1 x 10^6 to 5 x 10^6 CFU/mL (as determined by OD530) was prepared from five colonies. The suspension was subsequently diluted and added to each well of the compound-containing plates giving a final cell density of fungi suspension of 2.5 x 10^3 CFU/mL and a total volume of 50 µL. All plates were covered and incubated at 35 °C for 24 h without shaking. […]
Growth inhibition of C. albicans was determined measuring absorbance at 530 nm (OD530), while the growth inhibition of C. neoformans was determined measuring the difference in absorbance between 600 and 570 nm (OD600-570), after the addition of resazurin (0.001% final concentration) and incubation at 35 °C for an additional 2 h. The absorbance was measured using a Biotek Synergy HTX plate reader. The percentage of growth inhibition was calculated for each well, using negative control (medium only) and positive control (bacteria without inhibitors) on the same plate as the references. The significance of inhibition values was determined by modified Z-scores, calculated using the median and MAD of the samples (no controls) on the same plate. Samples with inhibition value above 80% and Z-score above 2.5 for either replicate (n = 2 on different plates) were classed as actives.
(§4) Colistin and vancomycin were used as positive bacterial inhibitor standards for Gram-negative and Gram-positive bac-teria, respectively. Fluconazole was used as a positive fungal inhibitor standard for C. albicans and C. neoformans. The antibiotics were provided in four concentrations, with two above and two below its MIC value, and plated into the first eight wells of column 23 of the 384-well NBS plates. The quality control (QC) of the assays was determined by the antimicrobial controls and the Z’-factor (using positive and negative controls). Each plate was deemed to fulfil the qual- […]
(§5) full growth inhibition at their highest concentration, and no growth inhibition at their lowest concentration. The seven […]
(§6) test microorganisms were Staphylococcus aureus MRSA (ATCC 43300), Escherichia coli (ATCC 25922), Klebsiella pneu-moniae (ATCC 700603), Acinetobacter baumanii (ATCC19606), Pseudomonas aeruginosa (ATCC 27853), Candida albicans (ATCC 90028) and Cryptococcus neoformans var. grubii (H99; ATCC 208821).
(§7) S4. Anthelmintic activity testing methodology
Dose-response evaluations were carried out to estimate the half-maximal inhibitory concentrations (IC50 values) for compounds against Haemonchus contortus (Haecon-5 strain) exsheathed third-stage larvae (xL3s). H. contortus were maintained in experimental sheep and procured in accordance with the institutional animal ethics guidelines and the […]

[2] = tested on: A. baumannii (G-) strain ATCC 19606; assay: Antimicrobial growth inhibition (CO-ADD), A. baumannii; assay type: cell-based, Acinetobacter baumannii
Description: as §1, §2, §3
(§8) The compounds submitted to CO-ADD were evaluated in duplicate (n = 2) against seven microorganisms (five bacteria and two fungi) at a concentration of 32 µg/mL in a 384-well, non-binding surface plate (NBS) for each bacterial/fungal strain, keeping the final DMSO concentration to a maximum of 1% DMSO. All bacteria were cultured in cation-adjusted Mueller-Hinton broth (CAMHB) at 37 °C overnight. A sample of each culture was then diluted 40-fold in fresh broth and incubated at 37 °C for 1.5-3 h. The resultant mid-log phase cultures were diluted (CFU/mL measured by OD600), then added to each well of the compound containing plates, giving a cell density of 5x10^5 CFU/mL and a total volume of 50 µL. All the plates were covered and incubated at 37 °C for 18 h without shaking. […] Inhibition of bacterial growth was determined measuring absorbance at 600 nm (OD600) using a Tecan M1000 Pro mon-ochromator plate reader. […]
(§9) 2 h. The absorbance was measured using a Biotek Synergy HTX plate reader. The percentage of growth inhibition was calculated for each well, using negative control (medium only) and positive control (bacteria without inhibitors) on the same plate as the references. The significance of inhibition values was determined by modified Z-scores, calculated using the median and MAD of the samples (no controls) on the same plate. Samples with inhibition value above 80% and Z-score above 2.5 for either replicate (n = 2 on different plates) were classed as actives.
as §4, §5, §6, §7
(§10) Dose-response evaluations were carried out to estimate the half-maximal inhibitory concentrations (IC50 values) for compounds against Haemonchus contortus (Haecon-5 strain) exsheathed third-stage larvae (xL3s). H. contortus were maintained in experimental sheep and procured in accordance with the institutional animal ethics guidelines and the regulations of Australia (permit no. 1714374; University of Melbourne). Immediately prior to use, third-stage larvae (L3s) were exsheathed and sterilised by incubation in 0.15% (v/v) bleach at 38 °C for 20 min, followed by washes in […]

[3] = Cytotoxicity assay (CO-ADD); assay type: cell-based; settings: human embryonic kidney cells
[4] = tested on: human red blood cells; assay: Haemolysis assay (CO-ADD); assay type: cell-based
[5] = tested on: MRSA (G+) strain ATCC 43300; assay: Antimicrobial growth inhibition (CO-ADD), MRSA; assay type: cell-based, Staphylococcus aureus; settings: for inhibition at 32 µg/mL / MIC: Staphylococcus aureus
Description: as §1, §2, §3, §8, §9, §4, §5, §6, §7, §10

[6] = tested on: C. neoformans var. grubii strain ATCC 208821; assay: Antimicrobial growth inhibition (CO-ADD), C. neoformans; assay type: cell-based; settings: Cryptococcus neoformans
[7] = tested on: K. pneumoniae (G-) strain ATCC 700603; assay: Antimicrobial growth inhibition (CO-ADD), K. pneumoniae; assay type: cell-based, Klebsiella pneumoniae; settings: for % inhibition K. pneumoniae: 32 µg/mL
Description: as §1, §2, §3, §8, §9, §4, §5, §6, §7, §10

[8] = tested on: E. Coli (G-) strain ATCC 25922; assay: Antimicrobial growth inhibition (CO-ADD), E. coli; assay type: cell-based, Escherichia coli; settings: for % inhibition E. coli: 32 µg/mL; for inhibition at 32 µg/mL / MIC: Escherichia coli
Description: as §1, §2, §3, §8, §9, §4, §5, §6, §7, §10

[9] = 32 µg/mL, duplicate (n = 2) values

SMILES: COC1=C(Br)[C@H](O)[C@](O)(CC#N)C=C1Br [Compound 1, (+)-aeroplysinin-1]
- % inhibition C. neoformans [1]: −6.6% and 0.0%
- MIC ([2]; Acinetobacter baumannii, ATCC19606, read-out: MIC A. baumannii): > 32 µg/mL
- CC50 [3]: > 32 µg/mL
- Haemolysis (HC10) [4]: >32 µg/mL
- % inhibition MRSA [5, 9]: 96.7%
- MIC MRSA ([5]; ATCC 43300, MIC = concentration at which growth inhibited by ≥80%, range 0.25−32 µg/mL): 32 µg/mL
- inhibition at 32 µg/mL ([5]; read-out: % inhibition MRSA, 32 µg/mL, duplicate (n = 2) values): 95.9%
- MIC ([5]; read-out: MIC MRSA, ATCC 43300, MIC = concentration at which growth inhibited by ≥80%, range 0.25−32 µg/mL): < 32 µg/mL
- inhibition at 32 µg/mL ([5]; read-out: mean value of % inhibition against MRSA, 32 µg/mL, mean of duplicates): 96.3%
- MIC ([6]; ATCC208821, read-out: MIC C. neoformans): > 32 µg/mL
- % inhibition K. pneumoniae ([7]; duplicate (n = 2) values): −2.8% and −3.3%
- MIC ([7]; Klebsiella pneumoniae, ATCC700603, read-out: MIC K. pneumoniae): > 32 µg/mL
- % inhibition E. coli ([8]; duplicate (n = 2) values): 95.2%
- inhibition at 32 µg/mL ([8]; ATCC25922, read-out: % inhibition E. coli, 32 µg/mL, duplicate (n = 2) values): 93.7%
- MIC ([8]; ATCC25922, read-out: MIC E. coli): 32 µg/mL
- inhibition at 32 µg/mL ([8]; ATCC25922, read-out: mean value of % inhibition against E. coli, 32 µg/mL, mean of duplicates): 94.5%

- MIC ([2]; Acinetobacter baumannii, ATCC19606, ATCC 19606, read-out: MIC A. baumannii): > 32 µg/mL
- MIC ([5]; ATCC 43300, MIC = concentration at which growth inhibited by ≥80%, range 0.25−32 µg/mL, read-out: MIC MRSA): > 32 µg/mL
- MIC ([6]; ATCC208821, var. grubii ATCC 208821, read-out: MIC C. neoformans): > 32 µg/mL
- MIC ([7]; Klebsiella pneumoniae, ATCC700603, ATCC 700603, read-out: MIC K. pneumoniae): > 32 µg/mL
- MIC ([8]; ATCC25922, ATCC 25922, MIC = concentration at which growth inhibited by ≥80%, read-out: MIC E. coli): > 32 µg/mL
SMILES: COc1c(Br)cc(CC#N)c(O)c1Br [Compound 8, 2-(3,5-dibromo-2-hydroxy-4-methoxyphenyl)acetonitrile]
- % inhibition C. neoformans [1]: 11.1% and 4.0%
- % inhibition A. baumannii [2, 9]: 7.5%
- inhibition at 32 µg/mL ([2]; Acinetobacter baumannii, ATCC19606, 32 µg/mL, duplicate (n = 2) values, read-out: % inhibition A. baumannii): 11%
- CC50 ([3]; human): > 32 µg/mL
- Haemolysis (HC10) [4]: >32 µg/mL
- % inhibition MRSA [5, 9]: 8.5%
- inhibition at 32 µg/mL ([5]; 32 µg/mL, duplicate (n = 2) values, read-out: % inhibition MRSA): 7.6%
- % inhibition K. pneumoniae ([7]; duplicate (n = 2) values): 12.5%
- inhibition at 32 µg/mL ([7]; Klebsiella pneumoniae, ATCC700603, 32 µg/mL, duplicate (n = 2) values, read-out: % inhibition K. pneumoniae): 10.3%
- % inhibition E. coli ([8]; duplicate (n = 2) values): 16.9%
- inhibition at 32 µg/mL ([8]; ATCC25922, 32 µg/mL, duplicate (n = 2) values, read-out: % inhibition E. coli): 12.7%
